{"source": "paper PMC9511493", "about": "“2-(Fluoromethoxy)-4′-(S-methanesulfonimidoyl)-1,1′-biphenyl (UCM-1306), an Orally Bioavailable Positive Allosteric Modulator of the Human Dopamine D1 Receptor for Parkinson’s Disease” (Journal of Medicinal Chemistry, 2022)", "key": {"C57BL/6J mice": {"test_system": "C57BL/6J mice", "experiment": "cocaine-induced hyperlocomotion assay", "format": "in vivo, mouse", "settings": "1 mg/kg ip", "protocol": "The experiment was conducted in adherence to the European Communities Council Directive (86/609/ECC) and Spanish regulations (BOE 252/34367-91, 2005) for the use of laboratory animals. The assay was performed according to a previously reported method[57] using 3 month old male mice with C57BL/6J background, and 8 mice were used for each experimental condition. All mice were handled and habituated to the injection procedures once per day for 5 days prior to behavioral testing. Experiments were carried out between 8:00 and 20:00, and the animals were acclimated to the experimental room for 30 min each day. Performance in the open field was recorded by a computer-based video tracking system (Smart v2.5, Panlab, Barcelona, Spain). Four open fields (50 × 50 × 50 cm, Panlab) with gray backgrounds were used, and the maximum light intensity in the center of the open field was 100 lux. Animals received a dose of 26 (1 mg/kg, ip) in a volume of 20 mL/kg of sterile saline as the vehicle, 15 min prior to a dose of cocaine (20 mg/kg, sc). Five min after cocaine injection, animals were placed in the open field and locomotion was measured at […] along a 30-min period of analysis. Horizontal locomotion was measured as total distance traveled (cm)."}, "[1]": {"experiment": "stability in mouse liver homogenate", "format": "in vitro ADME", "settings": "remaining compound after 24 h", "protocol": "HSA binding assay. The assessment of compounds binding to HSA was performed by incubating a fixed concentration of the compound with different concentrations of immobilized HSA, using the TRANSILXL HSA Binding Kit (TMP-0210- 2096, Sovicell). An 8-well unit of the TRANSIL assay plate was used for each compound : six wells contain increasing concentrations of HSA immobilized on silica beads suspended in PBS at pH 7.4, and two wells contain buffer only and serve as references to account for nonspecific binding. The TRANSIL assay plate was thawed for 3 h at rt and centrifuged at 750g for 5 s. […] After this time, the plate was centrifuged at 750gfor 10 min, and 50 μL of the supernatants were transferred for analytical quantification by HPLC-MS using selected ion monitoring (SIM). The binding percentage was calculated from the remaining free compound concentration in the supernatant of each well, using the spreadsheet and algorithms supplied with the kit.\nStability in mouse serum. […] Supernatants were then analyzed by HPLC-MS using SIM mode, and quantification was estimated by using the peak area integration normalized with an internal standard.\nStability assay in mouse liver homogenate. Stability of test compounds and reference compound propranolol was determined by incubation in liver homogenates following previously reported procedure. […]"}}, "note": "Entries after “also recorded” stand apart in the source; their conditions may differ.", "data": [{"compound": "CS(=N)(=O)c1ccc(-c2ccccc2OCF)cc1", "note": "(stereo not drawn) [Compound 26, 2-(Fluoromethoxy)-4′-(S-methanesulfonimidoyl)-1,1′-biphenyl]", "values": [{"measurement": "effect on cocaine-induced hyperlocomotion", "setting": "C57BL/6J mice; 15 min before cocaine 20 mg/kg sc", "value": "potentiated the hyperlocomotion induced by cocaine; also recorded: enhanced cocaine (20 mg/kg, sc)-induced hyperlocomotion"}, {"measurement": "intrinsic locomotor activity, compound alone", "setting": "C57BL/6J mice; no cocaine", "value": "no intrinsic locomotor activity"}, {"measurement": "liver homogenate stability (%)", "setting": "[1]", "value": 65, "unit": "%"}]}]}
